Values quoted from earlier work as cited in patent US20240307482A1, “TOPICAL COMPOSITIONS” (Illustris Pharmaceuticals, Inc., priority 2019, published 2024).

System: wrinkles
Settings: formulations with 10% concentration acetyl hexapeptide; after 30 days of trial use

In the case of acetyl hexapeptide-3, the “reduce the depth of wrinkles” value is listed as “up to 30%”.
